Results from patent US11865359B2, “Tumor imaging with x-rays and other high energy sources using as contrast agents photon-emitting phosphors having therapeutic properties” (IMMUNOLIGHT, LLC., priority 2014, dated 2024).

Tests used:
[1] = test system: tumor; experiment: Animal study, Rodent Syngeneic Model, tumor growth delay; assay type: in vivo, BALB/c female mice; settings: 50-100 uL intra-tumoral injection three times per week, 100 ug phosphor combination and 5 uM psoralen (AMT), X-Ray 75kVp, 30 mA, 3 min; repeated study same result
Procedure: A phosphor system containing the following phosphor combination: LaPO4:Ce^3+, Tb^3+, 3Ca3(PO4)2.Ca(Fl, Cl)2:Sb^3+, Mn^2+, ZrO6-: Pr, Si, CaSiO3:Mn, Pb was used in an animal study based on a Rodent Syngeneic Model. In this animal study, a 50-100 uL intra-tumoral injection three times per week using 100 ug phosphor and 5 uM psoralen (AMT) and exposed to X-Ray dose of 75kVp using 30 mA for a duration of 3 min. The groups of mice in this study consisted of eight BALB/c female mice.

[2] = test system: B16 cancer cells; experiment: Clonogenic cell kill, visible phosphor mixtures under x-ray with and without psoralen (AMT); assay type: cell-based
Text: Accordingly, combinations of more than two “visible” phosphors can be used in this invention. Discussed below are x-ray settings and mass ratios for clonogenic cell kill experiments. F1 refers to the insertion of an aluminum filter into the x-ray beam to act as a filter.
FIGS. 34A and 34B show cell kill comparisons (shown here as the number of surviving colonies) between B16 cancer cells treated with and without psoralen (i.e., AMT) with different phosphor mixtures, but otherwise being x-ray stimulated and containing the multiple phosphor combinations noted above. On these drawings, LDLE=low xRT dose, low energy; HDHE=high xRT dose, high energy.
On these drawings, LDLE=low xRT dose, low energy; HDHE=high xRT dose, high energy.

[3] = clinical use; cited from earlier work
[4] = test system: cells; settings: cells kept in the dark compared to those exposed to light; cited from earlier work
[5] = test system: sarcoma cell line KP1408; experiment: Annexin V flow cytometry apoptosis assay, 1Gy 80kVp x-ray; settings: psoralen, phosphor and x-ray present
[6] = test system: sarcoma cell line KP1619; experiment: as above; settings: psoralen, phosphor and x-ray present

Q: For `Cc1oc2c(C)c3oc(=O)cc(C)c3cc2c1CN` [AMT], which “tumor growth versus saline treated group” value [1] is on record?
A: The value was “tumor growth delay”.

Q: What about the “cell kill (surviving colonies) with versus without psoralen” value ([2]; Red/Yellow/Green and Flamingo/Yellow/Green phosphor mixtures, x-ray stimulated, FIGS. 34A and 34B) of the same compound?
A: The value was “improved cell kill”.

Q: What about the “cell kill with versus without psoralen” value ([2]; flamingo, yellow, green FYG phosphor combination, FIG. 36) of the same compound?
A: The value was “pronounced cell kill”.

Q: For `Oc1cccc(-c2c3nc(c(-c4cccc(O)c4)c4ccc([nH]4)c(-c4cccc(O)c4)c4nc(c(-c5cccc(O)c5)c5ccc2[nH]5)CC4)C=C3)c1` [Foscan, Tetra (m-hydroxyphenyl) chlorin], which “duration of skin photosensitivity” value [3] is on record?
A: Its value is “approximately 2 weeks”.

Q: With `NCCN.[Cl][Pt]([Cl])([I])[I]` [[PtCl2I2(en)]] as the compound, how does the “cytotoxicity, dark compared to light” value [4] read?
A: The value was “no difference in cytotoxicity”.

Q: What does the source list for `O=c1ccc2cc3ccoc3cc2o1` [psoralen]?
A: apoptosis [5]: high apoptosis; apoptosis [6]: high apoptosis; cell kill with versus without psoralen ([2]; higher kVp x-ray conditions, FIGS. 35A and 35B): does not show an increased kill
